Test results published in publication PMC5301048, “Selection and early clinical evaluation of the brain‐penetrant 11β‐hydroxysteroid dehydrogenase type 1 (11β‐HSD1) inhibitor UE2343 (Xanamem™)” (British Journal of Pharmacology, 2017).
Like-named read-outs stand apart in the source and are kept apart here.

Columns and labels:
[1] = CSF study, plasma and CSF pharmacokinetics; format: in vivo; settings: human; for Tmax: median (range); for Kp at 5 h / concentration at 5 h / Cmax / half-life / AUC(0-t): 35 mg; for concentration at 5 h: CSF; for AUC(0-t): read-out: AUC0–12h
Procedure: A non‐randomized, open label, multiple dose phase I study to determine the pharmacokinetic parameters of UE2343 in CSF was carried out at Linear Clinical Research Ltd, Nedlands, Australia. Four healthy male subjects each received 35 mg UE2343 b.i.d (12 hourly) fed (30 min after the start of a standard meal) for 3 days (Day 1 to Day 3) and once on the morning of Day 4 (seven doses in total). Plasma pharmacokinetic samples were taken from each subject on Day 1 and Day 4. A single CSF sample was taken from each subject at 5 h post‐final dose on Day 4, corresponding to the plasma Tmax (time to maximum plasma concentration).
Laboratory evaluation of clinical safety parameters was carried out using standard validated methods. Measurement of plasma pharmacodynamic markers [adrenocorticotropic hormone (ACTH), cortisol, 4‐androstenedione, testosterone and dehydroepiandrosterone sulphate (DHEA‐s)] was carried out using commercially available kits. Each method was fully validated prior to analysis. Urinary steroid metabolites were measured according to established methods (Boonen et al., 2013). UE2343 levels in plasma, urine and CSF was determined by LC–MS/MS using fully validated methods.
The data and statistical analysis comply with the recommendations on experimental design and analysis in pharmacology (Curtis et al., 2015). Levels of probability, P < 0.05 were deemed to constitute the threshold for statistical significance. Pharmacokinetic parameters, except Tmax (time of maximum observed drug concentration), are given as mean ± coefficient of variation (CV%). Tmax is given as median ± range. For each of the pharmacodynamic parameters [ACTH, cortisol, adrenal androgens, tetrahydrocortisols (THFs)/tetrahydrocortisone (THE) ratio], the maximum % change from baseline for each subject was subjected to ANOVA. For selected data, an additional covariate factor for the baseline was also included in the ANOVA/analysis of covariance (ANCOVA) model. Associated P‐values <0.05 for each comparison have been presented.

[2] = Plasma protein binding, dog plasma; format: in vitro ADME; settings: mean ± SD [n]
[3] = Pharmacokinetics in dog (i.v. and p.o.); format: in vivo; settings: for bioavailability: p.o. 5 mg·kg^−1 vs i.v. 1 mg·kg^−1, mean ± SD
Procedure: Pharmacokinetic studies were carried out at Charles River, UK. For both i.v. and p.o. administration, compounds were prepared in 0.9% saline containing 2% DMSO (v^.v^‐1) and 38% PEG400 (v^.v^‐1). Solutions were passed through 0.22 μm filters prior to administration. Three Beagle dogs each received a single i.v. injection of compound 4 at a dose level of 1 mg·kg^−1. Following a washout period of 1 week, each animal received a single p.o. dose of compound 4 at a dose level of 5 mg·kg^−1.
After a washout period of 6 weeks, the same three dogs each received a single i.v. injection of compound 7 at a dose level of 1 mg·kg^−1. Following a washout period of 1 week, each animal received a single p.o. dose of compound 7 at a dose level of 5 mg·kg^−1.
Plasma samples were obtained up to 24 h post dose administration, and the concentration of each test item in plasma was determined using LC–MS/MS. Pharmacokinetic parameters were derived by non‐compartmental analysis using WinNonLin pharmacokinetic software.

[4] = Tissue exposure measurements in rats (plasma and brain); format: in vivo; settings: rat
Procedure: The circulating plasma levels and tissue distribution of compounds were determined according to the method described in WO2011135276 (Webster et al., 2011a). Animals were group‐housed, had free access to food and water and were maintained in accordance with UK Home Office regulations. The animal work was conducted under UK Home Office Project Licence no. PPL 60/3915.
Compounds were prepared in 0.9% saline containing 2% DMSO (v^.v^‐1) and 38% PEG400 (v^.v^‐1) and administered to male Sprague Dawley rats by oral gavage such that the final concentration of compound was 10 mg·kg^−1. Rats (n = 3 per time point) were killed by decapitation at 1, 4 and 6 h post dosing, and trunk blood and tissues (liver, adipose and brain) were excised. Blood samples at 0.5 and 2 h post dosing were taken by a tail nick from the 4 and 6 h rats respectively.
Compounds were triple extracted from plasma (prepared from blood by a high speed centrifugation step) and spiked with 1 μg of a standard compound using ethyl acetate. Extracts were dried under nitrogen and re‐suspended in 60% methanol/40% ammonium acetate (5 mM).
A known weight of tissue was homogenized in 3 volumes of Krebs buffer. The compound was triple extracted with ethyl acetate from the supernatant of a low speed spin spiked with […] of a standard compound. Extracts were dried under nitrogen and re‐suspended in 60% methanol/40% ammonium acetate (5 mM).
Samples from plasma and tissue were analysed by TSQ Quantum Discovery Tandem Mass Spectrometer and Surveyor Liquid Chromatogram (Thermo, Hemel‐Hempstead, UK). Then 10 μL of each sample was injected in a mobile phase consisting of 60% methanol/40% ammonium acetate (5 mM) at a flow rate of 0.5 mL·min^−1. The column used was a BDS hypersil C18, 50 × 2.1 mm with a 5 μm particle size.
Each compound was tuned with a spray voltage of 3000 V and a capillary temperature of 300°C, and values for tube lens, CID and product ions were determined. The peak area for each compound and for the internal standard was determined, and the concentration of compound ^. g^‐1 of tissue or mL^‐1 of plasma was calculated by comparison of the peak area ratio to a standard curve.

[5] = Microsomal stability, dog liver microsomes; format: in vitro ADME; settings: mean ± SD [n]
Procedure: Microsomal stability was determined using pooled human, rat or dog liver microsomes according to the method described in WO2011135276 (Webster et al., 2011a).

[6] = male, plasma, oral, 35 mg b.i.d, Day 1, mean (CV%)
[7] = male, plasma, oral, 35 mg b.i.d, Day 4, mean (CV%)

CCSF, 5h (concentration in CSF) ([1]; 35 mg b.i.d, Day 4, 5 h post-dose, mean (CV%), listed as UE2343): 69.8 (44%) ng·mL^−1 | Tmax ([1]; 35 mg b.i.d, Day 4): 5.1 (3–5) h | extent of accumulation in plasma after repeated dosing ([1]; 35 mg b.i.d, Day 4 vs Day 1): 3.3 fold | time post‐dose at which mean Cmax was reached ([1]; 35 mg b.i.d, Days 1 and 4): 5 h | CSF concentration relative to IC50 at Cmin ([1]; 35 mg twice daily, in words): more than fivefold | CSF concentration relative to IC50 at Cmax ([1]; 35 mg twice daily, in words, listed as UE2343): up to ninefold greater | Kp at 5 h ([1]; male, CSF (relative to free plasma), oral, 35 mg b.i.d, Day 4, read-out: CSF levels as % of the free plasma levels, range): 0.25 to 0.4 | Kp at 5 h ([1]; male, CSF (relative to free plasma), oral, 35 mg b.i.d, at plasma Cmax on Day 4, read-out: mean CSF levels as % of the free plasma levels): 0.33 | Kp at 5 h ([1]; male, CSF (relative to total plasma), oral, 35 mg b.i.d, Day 4, read-out: CSF concentration as % of simultaneous total plasma levels, range): 0.0746 to 0.119 | Kp at 5 h ([1]; male, CSF (relative to total plasma), oral, 35 mg b.i.d, at plasma Cmax on Day 4, read-out: mean CSF levels as % of the total plasma levels): 0.1 | concentration at 5 h ([1]; male, oral, 35 mg b.i.d, Day 4, 5 h post-dose, mean (CV%), read-out: CCSF, 5h (concentration in CSF)): 69.8 ng/mL | concentration at 5 h ([1]; male, oral, 35 mg b.i.d, Day 4, 5 h post-dose, read-out: concentration in the CSF, range over subjects): 41.2 to 99.9 ng/mL | Cmax [1, 6]: 235 ng/mL | half-life [1, 6]: 6.24 h | AUC(0-t) [1, 6]: 1710 ng·h/mL | Cmax [1, 7]: 708 ng/mL | half-life [1, 7]: 8.97 h | AUC(0-t) [1, 7]: 5670 ng·h/mL | Tmax ([1]; male, plasma, oral, 35 mg b.i.d, Day 1, read-out: Tmax): 5.1 h | Plasma protein binding (% unbound), dog [2]: 44 ± 0 [1] % unbound | clearance ([3]; Beagle, plasma, iv, i.v. 1 mg·kg^−1, mean ± SD): 4.68 ± 1.12 mL/min/kg | half-life ([3]; Beagle, plasma, mean ± SD): 2.79 ± 0.84 h | Tmax ([3]; Beagle, plasma, oral, 5 mg·kg^−1): 1 h | bioavailability ([3]; Beagle, plasma, oral): > 100% | Cmax ([3]; Beagle, plasma, po, p.o. 5 mg·kg^−1, mean ± SD): 4590 ± 546 ng/mL | bioavailability ([3]; Beagle, plasma, po): 170 ± 40% | oral exposure relative to compound 7 ([3]; p.o., in words): greater than threefold higher | Kp ([4]; male, Sprague Dawley, brain (relative to free plasma), oral, 10 mg·kg^−1, rat plasma protein binding taken into account, read-out: brain : plasma free ratio): 0.43 | Kp ([4]; male, Sprague Dawley, brain and plasma, 10 mg·kg^−1 oral gavage, read-out: Brain : plasma ratio): 0.11 | Cmax ([4]; male, Sprague Dawley, plasma, po, 10 mg/kg, 10 mg·kg^−1 oral gavage, mean ± SD): 1540 ± 657 ng/mL | level in brain as % of the free plasma concentration [4]: 43% | Brain Cmax ([4]; 10 mg·kg^−1 oral gavage, mean ± SD): 173 ± 80 ng/mL | Liver microsomal stability (% parent at 30 min), dog [5]: 92 ± 5 [3] % parent at 30 min
Structure (SMILES): O=C(c1csc(-c2cn[nH]c2)c1)N1C2CCC1CC(O)(c1ncccn1)C2 (stereo not drawn) [compound 4]
